Assay results taken from patent publication US20090054332A1, “THOMBOPOIETIN PEPTIDE CONJUGATES” (CONJUCHEM BIOTECHNOLOGIES, INC., priority 2007, published 2009).
Where no end group is shown, it is not given here. Side-chain parts run from the residue outwards. [ ]: non-standard residue; d: D form. The star is where a group is joined. K(MPA) = lysine carrying the MPA reactive group; Propanoyl(3-maleimido) = O=C1C=CC(=O)N1CCC(=O)*; MPA = maleimido propionic acid reactive group; Aoc = NCCCCCCCC(=O)O

Key:
[1] = tested on: Platelet count; test: In vivo potency: platelet count after a single injection in CD-1 mice; set-up: species or system mouse; conditions: female CD-1 mice, 10 nmol/kg, 6 days postdose vs prior to dosing, n=4/group
Experimental: Ten to twelve-week old female CD-1 mice were administered with a single injection of the TPO derivatives indicated below at 10 nmol/kg (n=4/group). The DAC™ compounds in Table 4 are variants of TPO peptides modified to include an MPA reactive group, thereby forming an MPA-modified unconjugated peptides. The DAC™ compounds in Table 4 were administered intravenously. Albumin conjugates of the DAC™ compounds (also referred to herein as Preformed Conjugates (PC)) were injected subcutaneously. For each mouse, a blood sample was collected prior to dosing and 6 days postdose via the […]. Platelet counts were measured using an ABC Vet analyzer using standard procedures.
Platelet count fold increases are reported in Table 4 and 5 for MPA-modified TPO peptide and the albumin TPO conjugate, respectively.

[2] = phase I trials, adult and pediatric populations; cited from earlier work
[3] = single subcutaneous injection of preformed albumin conjugate

IEGPTLRQWLAARA-GGGGGGGG-IEGPTLRQWLAARA-K-OA-OA-(reactive group) (IEGPTLRQWLAARAGGGGGGGGIEGPTLRQWLAARAK-{Aoc-Aoc-MPA}; not fully specified) [MPA-modified form of SEQ ID NO: 170, unconjugated DAC compound]
Platelet Count Fold Increase ([1]; single intravenous injection): 4.7 fold

Albumin-conjugate of SEQ ID NO: 170: Preformed albumin conjugate (PC) of the MPA-modified TPO peptide of SEQ ID NO: 170 (IEGPTLRQWLAARAGGGGGGGGIEGPTLRQWLAARAK[Aoc]; not fully specified; printed as IEGPTLRQWLAARA-GGGGGGGG-IEGPTLRQWLAARA-K-OA-; also: MPA-linked preformed albumin conjugate, site not given here)
Platelet Count Fold Increase [1, 3]: 4.4 fold

(reactive group)-GGGGG-IEGPTLRQWLAARA-GGGGGGGG-LQGPTLRAWRAGMA ({Propanoyl(3-maleimido)}-GGGGGIEGPTLRQWLAARAGGGGGGGGLQGPTLRAWRAGMA) [MPA-modified form of SEQ ID NO: 185, unconjugated DAC compound]
Platelet Count Fold Increase ([1]; single intravenous injection): <3 fold

LQGPTLRAWRAGMA-GGGGGGGG-IEGPTLRQWLAARA-(OA)-K-(reactive group) (LQGPTLRAWRAGMAGGGGGGGGIEGPTLRQWLAARA-{Aoc-K(MPA)}) [MPA-modified form of SEQ ID NO: 191, unconjugated DAC compound]
Platelet Count Fold Increase ([1]; single intravenous injection): <3 fold

IEGPTLRQWLAARA-GGGGGGGG-IEGPTLRQWLAARA-(OA)-K-(reactive group) (IEGPTLRQWLAARAGGGGGGGGIEGPTLRQWLAARA-{Aoc-K(MPA)}) [MPA-modified form of SEQ ID NO: 190, unconjugated DAC compound]
Platelet Count Fold Increase ([1]; single intravenous injection): 5.0 fold

Ac-ARAALWQRLTPGEI-GGGGGGGG-IEGPTLRQWLAARAI-K(OA-reactive group) (Ac-ARAALWQRLTPGEIGGGGGGGGIEGPTLRQWLAARAIK([Aoc-Propanoyl(3-maleimido)])) [MPA-modified form of SEQ ID NO: 123, unconjugated DAC compound]
Platelet Count Fold Increase ([1]; single intravenous injection): <3 fold

(reactive group)-GGGGG-IEGPTLRQWLAARA-GGGGGGGG-IEGPTLRQWLAARA ({Propanoyl(3-maleimido)}-GGGGGIEGPTLRQWLAARAGGGGGGGGIEGPTLRQWLAARA) [MPA-modified form of SEQ ID NO: 168, unconjugated DAC compound]
Platelet Count Fold Increase ([1]; single intravenous injection): 5.1 fold

Albumin-conjugate of SEQ ID NO: 168: Preformed albumin conjugate (PC) of the MPA-modified TPO peptide of SEQ ID NO: 168 ({Propanoyl(3-maleimido)}-GGGGGIEGPTLRQWLAARAGGGGGGGGIEGPTLRQWLAARA; also: MPA-linked preformed albumin conjugate, site not given here)
Platelet Count Fold Increase [1, 3]: 4.3 fold

(reactive group)-GGGGG-IEGPTLRQWLAARA-GGGGGGGG-ARAALWQRLTPGEI ({Propanoyl(3-maleimido)}-GGGGGIEGPTLRQWLAARAGGGGGGGGARAALWQRLTPGEI) [MPA-modified form of SEQ ID NO: 117, unconjugated DAC compound]
Platelet Count Fold Increase ([1]; single intravenous injection): <3 fold

Ac-ARAALWQRLTPGEI-GGGGGGGG-ARAALWQRLTPGEI-K(OA-reactive group) (Ac-ARAALWQRLTPGEIGGGGGGGGARAALWQRLTPGEIK([Aoc-Propanoyl(3-maleimido)])) [MPA-modified form of SEQ ID NO: 127, unconjugated DAC compound]
Platelet Count Fold Increase ([1]; single intravenous injection): <3 fold

(reactive group)-GGGGG-ARAALWQRLTPGEI-GGGGGGGG-ARAALWQRLTPGEI ({Propanoyl(3-maleimido)}-GGGGGARAALWQRLTPGEIGGGGGGGGARAALWQRLTPGEI) [MPA-modified form of SEQ ID NO: 125, unconjugated DAC compound]
Platelet Count Fold Increase ([1]; single intravenous injection): <3 fold

Albumin-conjugate of SEQ ID NO: 169: Preformed albumin conjugate (PC) of the MPA-modified TPO peptide of SEQ ID NO: 169 (IEGPTLRQWLAARAGGGGGGGGIEGPTLRQWLAARA-{Aoc-Aoc-MPA}; also: MPA-linked preformed albumin conjugate, site not given here)
Platelet Count Fold Increase [1, 3]: 3.8 fold

IEGPTLRQWLAARA-GGGGGGGG-IEGPTLRQWLAARA-OA-OA-K-(reactive group) (IEGPTLRQWLAARAGGGGGGGGIEGPTLRQWLAARA-{Aoc-Aoc-K(MPA)}) [MPA-modified form of SEQ ID NO: 169, unconjugated DAC compound]
Platelet Count Fold Increase ([1]; single intravenous injection): 4.4 fold

(reactive group)-GGGGG-LQGPTLRAWRAGMA-GGGGGGGG-IEGPTLRQWLAARA ({Propanoyl(3-maleimido)}-GGGGGLQGPTLRAWRAGMAGGGGGGGGIEGPTLRQWLAARA) [MPA-modified form of SEQ ID NO: 184, unconjugated DAC compound]
Platelet Count Fold Increase ([1]; single intravenous injection): <3 fold

rhTPO: full length, glycosylated molecule known as recombinant human thrombopoietin
Safety of administration [2]: safe administration

(reactive group)-GGGGG-ARAALWQRLTPGEI-GGGGGGGG-IEGPTLRQWLAARA ({Propanoyl(3-maleimido)}-GGGGGARAALWQRLTPGEIGGGGGGGGIEGPTLRQWLAARA) [MPA-modified form of SEQ ID NO: 121, unconjugated DAC compound]
Platelet Count Fold Increase ([1]; single intravenous injection): <3 fold
